Laboratory results from PubChem BioAssay (NCI).
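Assay format: 96-well plates, 48-hour exposure. GI50 = concentration required for 50% inhibition of growth. The concentration for full growth arrest is given as TGI.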

Experiments:
Test in all cases: DTP human tumour cell line panel, 48 h
CAKI-1 renal = system: CAKI-1 renal
PC-3 prostate = system: PC-3 prostate
DU-145 prostate = system: DU-145 prostate
UACC-62 melanoma = system: UACC-62 melanoma
COLO 205 colon = system: COLO 205 colon
UO-31 renal = system: UO-31 renal
MDA-MB-231 breast = system: MDA-MB-231 breast
RPMI-8226 leukemia = system: RPMI-8226 leukemia
HOP-62 NSCLC = system: HOP-62 NSCLC
NCI-H23 lung = system: NCI-H23 lung
HCC-2998 colon = system: HCC-2998 colon
SF-268 CNS = system: SF-268 CNS
SR leukemia = system: SR leukemia
HCT-15 colon = system: HCT-15 colon
KM12 colon = system: KM12 colon
SNB-75 CNS = system: SNB-75 CNS
U251 CNS = system: U251 CNS
M14 melanoma = system: M14 melanoma
SF-295 CNS = system: SF-295 CNS
HT29 colon = system: HT29 colon
UACC-257 melanoma = system: UACC-257 melanoma
HS 578T breast = system: HS 578T breast
SK-MEL-5 melanoma = system: SK-MEL-5 melanoma
SK-OV-3 ovarian = system: SK-OV-3 ovarian
SK-MEL-2 melanoma = system: SK-MEL-2 melanoma
K-562 leukemia = system: K-562 leukemia
SNB-19 CNS = system: SNB-19 CNS
HL-60(TB) leukemia = system: HL-60(TB) leukemia
ACHN renal = system: ACHN renal
HOP-92 NSCLC = system: HOP-92 NSCLC
MCF7 breast = system: MCF7 breast
BT-549 breast = system: BT-549 breast
NCI-H460 lung = system: NCI-H460 lung
TK-10 renal = system: TK-10 renal
A498 renal = system: A498 renal
SK-MEL-28 melanoma = system: SK-MEL-28 melanoma
MOLT-4 leukemia = system: MOLT-4 leukemia
RXF 393 renal = system: RXF 393 renal
SN12C renal = system: SN12C renal
HCT-116 colon = system: HCT-116 colon
LOX IMVI melanoma = system: LOX IMVI melanoma
OVCAR-4 ovarian = system: OVCAR-4 ovarian
NCI-H522 lung = system: NCI-H522 lung
MDA-MB-435 = system: MDA-MB-435
A549 NSCLC = system: A549 NSCLC
MALME-3M melanoma = system: MALME-3M melanoma
CCRF-CEM leukemia = system: CCRF-CEM leukemia
OVCAR-8 ovarian = system: OVCAR-8 ovarian
NCI/ADR-RES ovarian = system: NCI/ADR-RES ovarian
T-47D breast = system: T-47D breast
OVCAR-3 ovarian = system: OVCAR-3 ovarian
786-0 renal = system: 786-0 renal
SW-620 colon = system: SW-620 colon
OVCAR-5 ovarian = system: OVCAR-5 ovarian
EKVX NSCLC = system: EKVX NSCLC
NCI-H226 lung = system: NCI-H226 lung
IGROV1 ovarian = system: IGROV1 ovarian

N/C(=C\C(=O)n1nc(-c2ccccc2)cc1N)c1ccccc1
GI50 (CAKI-1 renal): 5.96 µM
TGI (CAKI-1 renal): 80.4 µM
GI50 (PC-3 prostate): 4.35 µM
TGI (PC-3 prostate): 28.9 µM
GI50 (DU-145 prostate): 5.39 µM
TGI (DU-145 prostate): 27.7 µM
GI50 (UACC-62 melanoma): 3.09 µM
TGI (UACC-62 melanoma): 19.2 µM
GI50 (COLO 205 colon): 3.6 µM
TGI (COLO 205 colon): 14.7 µM
GI50 (UO-31 renal): 3.71 µM
TGI (UO-31 renal): 65.3 µM
GI50 (MDA-MB-231 breast): 11.3 µM
TGI (MDA-MB-231 breast): 65.2 µM
GI50 (RPMI-8226 leukemia): 2750 nM
TGI (RPMI-8226 leukemia): 16.2 µM
GI50 (HOP-62 NSCLC): 8.3 µM
TGI (HOP-62 NSCLC): 32.4 µM
GI50 (NCI-H23 lung): 4.59 µM
TGI (NCI-H23 lung): 22.8 µM
GI50 (HCC-2998 colon): 11.8 µM
TGI (HCC-2998 colon): 34.2 µM
GI50 (SF-268 CNS): 5.14 µM
TGI (SF-268 CNS): 31.7 µM
GI50 (SR leukemia): 1590 nM
TGI (SR leukemia): 7.38 µM
GI50 (HCT-15 colon): 4.09 µM
TGI (HCT-15 colon): 74.6 µM
GI50 (KM12 colon): 2900 nM
TGI (KM12 colon): 14.1 µM
GI50 (SNB-75 CNS): 3.72 µM
TGI (SNB-75 CNS): 52.1 µM
GI50 (U251 CNS): 4.04 µM
TGI (U251 CNS): 19.2 µM
GI50 (M14 melanoma): 3.13 µM
TGI (M14 melanoma): 14.7 µM
GI50 (SF-295 CNS): 3.48 µM
TGI (SF-295 CNS): 31.6 µM
GI50 (HT29 colon): 3.46 µM
TGI (HT29 colon): 13 µM
GI50 (UACC-257 melanoma): 17.4 µM
TGI (UACC-257 melanoma): 70.3 µM
GI50 (HS 578T breast): 2410 nM
TGI (HS 578T breast): 13 µM
GI50 (SK-MEL-5 melanoma): 3.01 µM
TGI (SK-MEL-5 melanoma): 12.1 µM
GI50 (SK-OV-3 ovarian): 5.31 µM
TGI (SK-OV-3 ovarian): 39 µM
GI50 (SK-MEL-2 melanoma): 4.96 µM
TGI (SK-MEL-2 melanoma): 26.2 µM
GI50 (K-562 leukemia): 2060 nM
TGI (K-562 leukemia): 24.4 µM
GI50 (SNB-19 CNS): 14.9 µM
TGI (SNB-19 CNS): 81.2 µM
GI50 (HL-60(TB) leukemia): 1880 nM
TGI (HL-60(TB) leukemia): 5.99 µM
GI50 (ACHN renal): 8.29 µM
TGI (ACHN renal): > 100 µM
GI50 (HOP-92 NSCLC): 4.59 µM
TGI (HOP-92 NSCLC): 31.8 µM
GI50 (MCF7 breast): 2860 nM
TGI (MCF7 breast): 21.1 µM
GI50 (BT-549 breast): 2560 nM
TGI (BT-549 breast): 27.4 µM
GI50 (NCI-H460 lung): 3.55 µM
TGI (NCI-H460 lung): 15.8 µM
GI50 (TK-10 renal): 7.72 µM
TGI (TK-10 renal): > 100 µM
GI50 (A498 renal): 2770 nM
TGI (A498 renal): 12.5 µM
GI50 (SK-MEL-28 melanoma): 5.84 µM
TGI (SK-MEL-28 melanoma): 32.3 µM
GI50 (MOLT-4 leukemia): 3.72 µM
TGI (MOLT-4 leukemia): 17.8 µM
GI50 (RXF 393 renal): 13.3 µM
TGI (RXF 393 renal): 44.8 µM
GI50 (SN12C renal): 7.96 µM
TGI (SN12C renal): 24.3 µM
GI50 (HCT-116 colon): 3.77 µM
TGI (HCT-116 colon): 16 µM
GI50 (LOX IMVI melanoma): 6.54 µM
TGI (LOX IMVI melanoma): 31.4 µM
GI50 (OVCAR-4 ovarian): 12.5 µM
TGI (OVCAR-4 ovarian): 47.1 µM
GI50 (NCI-H522 lung): 5.24 µM
TGI (NCI-H522 lung): 27.9 µM
GI50 (MDA-MB-435): 1190 nM
TGI (MDA-MB-435): 3.56 µM
GI50 (A549 NSCLC): 7.29 µM
TGI (A549 NSCLC): 81.3 µM
GI50 (MALME-3M melanoma): 7.51 µM
TGI (MALME-3M melanoma): 25.2 µM
GI50 (CCRF-CEM leukemia): 1340 nM
TGI (CCRF-CEM leukemia): 13.5 µM
GI50 (OVCAR-8 ovarian): 13.8 µM
TGI (OVCAR-8 ovarian): > 100 µM
GI50 (NCI/ADR-RES ovarian): 3.2 µM
TGI (NCI/ADR-RES ovarian): > 100 µM
GI50 (T-47D breast): 3.27 µM
TGI (T-47D breast): 26.3 µM
GI50 (OVCAR-3 ovarian): 2280 nM
TGI (OVCAR-3 ovarian): 6.46 µM
GI50 (786-0 renal): 7.72 µM
TGI (786-0 renal): 44.3 µM
GI50 (SW-620 colon): 3.59 µM
TGI (SW-620 colon): 17.2 µM
GI50 (OVCAR-5 ovarian): 19.2 µM
TGI (OVCAR-5 ovarian): 61.6 µM
GI50 (EKVX NSCLC): 5.57 µM
TGI (EKVX NSCLC): 35.9 µM
GI50 (NCI-H226 lung): 11.2 µM
TGI (NCI-H226 lung): 47.5 µM
GI50 (IGROV1 ovarian): 6.38 µM
TGI (IGROV1 ovarian): 61.7 µM
